From patent US9598446B2, “Amino compounds for treatment of complement mediated disorders” (priority 2014, dated 2017)
Read-outs that look alike come from different tables or passages of the source.

Target: Human factor D (Homo sapiens (Human), UniProt P00746)
Experiment: Human Factor D Assay
Type: biochemical
[1] = human factor D 80 nM, substrate Z-L-Lys-SBz1 and DTNB 100 μM each, pH 7.5, read-out: IC50

Chain of Human factor D (P00746 26-253): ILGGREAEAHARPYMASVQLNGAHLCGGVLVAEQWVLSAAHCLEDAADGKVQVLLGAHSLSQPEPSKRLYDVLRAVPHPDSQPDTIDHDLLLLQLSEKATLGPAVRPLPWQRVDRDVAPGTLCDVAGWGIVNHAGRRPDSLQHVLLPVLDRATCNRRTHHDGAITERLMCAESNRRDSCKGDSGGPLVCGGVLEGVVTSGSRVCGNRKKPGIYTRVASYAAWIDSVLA
Method: Human factor D (purified from human serum, Complement Technology, Inc.) at 80 nM final concentration is incubated with test compound at various concentrations for 5 minutes at room temperature in 50 mM Tris, 1M NaCl, pH 7.5. A synthetic substrate Z-L-Lys-SBz1 and DTNB (Ellman's reagent) are added to final concentrations of 100 μM each. The increase in color is recorded at OD405 nm in a microplate in kinetic mode over 30 minutes with 30 second time points in a spectrofluorimeter. IC50 values are calculated by non-linear regression from the percentage of inhibition of complement factor D activity as a function of test compound concentration.

| Compound | IC50 | IC50 [1] |
| --- | --- | --- |
| CC(=O)c1cn(CC(=O)N2C[C@H](F)C[C@H]2C(=O)Nc2ccccc2-n2nccc2C)c2ccc(Nc3cncnc3)cc12 [Compound 30, (2S,4R)-1-(2-(3-acetyl-5-(pyrimidin-5-ylamino)-1H-indol-1-yl)acetyl)-4-fluoro-N-(2-(5-methyl-1H-pyrazol-1-yl)phenyl)pyrrolidine-2-carboxamide] | 1000 to 10000 nM | – |
| CC(=O)c1cn(CC(=O)N2C[C@H](F)C[C@H]2C(=O)Nc2cccnc2)c2ccc(Nc3cncnc3)cc12 [Compound 31, (2S,4R)-1-(2-(3-acetyl-5-(pyrimidin-5-ylamino)-1H-indol-1-yl)acetyl)-4-fluoro-N-(pyridin-3-yl)pyrrolidine-2-carboxamide] | – | < 1000 nM |
| CC(=O)c1cn(CC(=O)N2C[C@H](F)C[C@H]2C(=O)Nc2ccccc2-c2nc3ccccc3s2)c2ccc(Nc3cncnc3)cc12 [Compound 32, (2S,4R)-1-(2-(3-acetyl-5-(pyrimidin-5-ylamino)-1H-indol-1-yl)acetyl)-N-(2-(benzo[d]thiazol-2-yl)phenyl)-4-fluoropyrrolidine-2-carboxamide] | – | > 10000 nM |
| CC(=O)c1cn(CC(=O)N2C[C@H](F)C[C@H]2C(=O)Nc2cncc(Cl)n2)c2ccc(Nc3cncnc3)cc12 [Compound 33, (2S,4R)-1-(2-(3-acetyl-5-(pyrimidin-5-ylamino)-1H-indol-1-yl)acetyl)-N-(6-chloropyrazin-2-yl)-4-fluoropyrrolidine-2-carboxamide] | – | < 1000 nM |
| CC(=O)c1cn(CC(=O)N2C[C@H](F)C[C@H]2C(=O)Nc2nnc(-c3ccccc3Cl)s2)c2ccc(Nc3cncnc3)cc12 [Compound 34, (2S,4R)-1-(2-(3-acetyl-5-(pyrimidin-5-ylamino)-1H-indol-1-yl)acetyl)-N-(5-(2-chlorophenyl)-1,3,4-thiadiazol-2-yl)-4-fluoropyrrolidine-2-carboxamide] | 1000 to 10000 nM | – |
| CC(=O)c1cn(CC(=O)N2C[C@H](F)C[C@H]2C(=O)Nc2cc3c(cc2F)OC(F)(F)O3)c2ccc(Nc3cncnc3)cc12 [Compound 35, (2S,4R)-1-(2-(3-acetyl-5-(pyrimidin-5-ylamino)-1H-indol-1-yl)acetyl)-4-fluoro-N-(2,2,6-trifluorobenzo[d][1,3]dioxol-5-yl)pyrrolidine-2-carboxamide] | – | < 1000 nM |
| CC(=O)c1cn(CC(=O)N2C[C@H](F)C[C@H]2C(=O)N[C@H]2CCCC[C@@H]2O)c2ccc(Nc3cncnc3)cc12 [Compound 36, (2S,4R)-1-(2-(3-acetyl-5-(pyrimidin-5-ylamino)-1H-indol-1-yl)acetyl)-4-fluoro-N-((1S,2S)-2-hydroxycyclohexyl)pyr-rolidine-2-carboxamide] | 1000 to 10000 nM | – |
| CC(=O)c1cn(CC(=O)N2C[C@H](F)C[C@H]2C(=O)Nc2cccc(Cl)c2-n2cncn2)c2ccc(Nc3cncnc3)cc12 [Compound 37, (2S,4R)-1-(2-(3-acetyl-5-(pyrimidin-5-ylamino)-1H-indol-1-yl)acetyl)-N-(3-chloro-2-(1H-1,2,4-triazol-1-yl)phenyl)-4-fluoropyrrolidine-2-carboxamide] | 1000 to 10000 nM | – |
| CC(=O)c1cn(CC(=O)N2C[C@H](F)C[C@H]2C(=O)Nc2ccc3[nH]c(C)c(C)c3c2)c2ccc(Nc3cncnc3)cc12 [Compound 38, (2S,4R)-1-(2-(3-acetyl-5-(pyrimidin-5-ylamino)-1H-indol-1-yl)acetyl)-N-(2,3-dimethyl-1H-indol-5-yl)-4-fluoropyrrolidine-2-carboxamide] | – | < 1000 nM |
| CC(=O)c1cn(C(=O)CN2C[C@H](F)C[C@H]2C(=O)Nc2nnc(-c3ccc(Cl)c(Cl)c3)s2)c2ccc(Nc3cncnc3)cc12 [Compound 39, (2S,4R)-1-(2-(3-acetyl-5-(pyrimidin-5-ylamino)-1H-indol-1-yl)-2-oxoethyl)-N-(5-(3,4-dichlorophenyl)-1,3,4-thiadiazol-2-yl)-4-fluoropyrrolidine-2-carboxamide] | – | > 10000 nM |
| CC(=O)c1cn(CC(=O)N2C[C@H](F)C[C@H]2C(=O)Nc2ccccc2N2CCOC2=O)c2ccc(Nc3cncnc3)cc12 [Compound 40, (2S,4R)-1-(2-(3-acetyl-5-(pyrimidin-5-ylamino)-1H-indol-1-yl)acetyl)-4-fluoro-N-(2-(2-oxooxazolidin-3-yl)phenyl)pyrrolidine-2-carboxamide] | 1000 to 10000 nM | – |
| CC(=O)c1cn(CC(=O)N2C[C@H](F)C[C@H]2C(=O)Nc2cc(C)nc3nc(C(F)(F)F)nn23)c2ccc(Nc3cncnc3)cc12 [Compound 41, (2S,4R)-1-(2-(3-acetyl-5-(pyrimidin-5-ylamino)-1H-indol-1-yl)acetyl)-4-fluoro-N-(5-methyl-2-(trifluoromethyl)-[1,2,4]triazolo[1,5-a]pyrimidin-7-yl)pyrrolidine-2-carboxamide] | – | > 10000 nM |
| CC(=O)c1cn(CC(=O)N2C[C@H](F)C[C@H]2C(=O)NC2CCCN(c3cnn(C)c3)C2)c2ccc(Nc3cncnc3)cc12 (stereo partly drawn) [Compound 42, (2S,4R)-1-(2-(3-acetyl-5-(pyrimidin-5-ylamino)-1H-indol-1-yl)acetyl)-4-fluoro-N-(1-(1-methyl-1H-pyrazol-4-yl)piperidin-3-yl)pyrrolidine-2-carboxamide] | – | < 1000 nM |
| CC(=O)c1cn(CC(=O)N2C[C@H](F)C[C@H]2C(=O)NCc2cccnc2)c2ccc(Nc3cncnc3)cc12 [Compound 43, (2S,4R)-1-(2-(3-acetyl-5-(pyrimidin-5-ylamino)-1H-indol-1-yl)acetyl)-4-fluoro-N-(pyridin-3-ylmethyl)pyrrolidine-2-carboxamide] | – | < 1000 nM |
| CC(=O)c1cn(CC(=O)N2C[C@H](F)C[C@H]2C(=O)Nc2ncc(Br)cn2)c2ccc(Nc3cncnc3)cc12 [Compound 44, (2S,4R)-1-(2-(3-acetyl-5-(pyrimidin-5-ylamino)-1H-indol-1-yl)acetyl)-N-(5-bromopyrimidin-2-yl)-4-fluoropyrrolidine-2-carboxamide] | – | < 1000 nM |
| CC(=O)c1cn(CC(=O)N2C[C@H](F)C[C@H]2C(=O)Nc2ccc(OCc3ccccc3)cn2)c2ccc(Nc3cncnc3)cc12 [Compound 45, (2S,4R)-1-(2-(3-acetyl-5-(pyrimidin-5-ylamino)-1H-indol-1-yl)acetyl)-N-(5-(benzyloxy)pyridin-2-yl)-4-fluoropyrrolidine-2-carboxamide] | – | < 1000 nM |
| CC(=O)c1cn(CC(=O)N2C[C@H](F)C[C@H]2C(=O)Nc2ccc3ccccc3c2)c2ccc(Nc3cncnc3)cc12 [Compound 46, (2S,4R)-1-(2-(3-acetyl-5-(pyrimidin-5-ylamino)-1H-indol-1-yl)acetyl)-4-fluoro-N-(naphthalen-2-yl)pyrrolidine-2-carboxamide] | – | < 1000 nM |
| CC(=O)c1cn(CC(=O)N2C[C@H](F)C[C@H]2C(=O)Nc2cncc(Br)n2)c2ccc(Nc3cncnc3)cc12 [Compound 47, (2S,4R)-1-(2-(3-acetyl-5-(pyrimidin-5-ylamino)-1H-indol-1-yl)acetyl)-N-(6-bromopyrazin-2-yl)-4-fluoropyrrolidine-2-carboxamide] | – | < 1000 nM |
| CC(=O)c1cn(CC(=O)N2C[C@H](F)C[C@H]2C(=O)Nc2cccc(Cl)c2C(F)(F)F)c2ccc(Nc3cncnc3)cc12 [Compound 48, (2S,4R)-1-(2-(3-acetyl-5-(pyrimidin-5-ylamino)-1H-indol-1-yl)acetyl)-N-(3-chloro-2-(trifluoromethyl)-phenyl)-4-fluoropyrrolidine-2-carboxamide] | – | < 1000 nM |
| CC(=O)c1cn(CC(=O)N2C[C@H](F)C[C@H]2C(=O)Nc2nc(-c3c(C)nc4sccn34)cs2)c2ccc(Nc3cncnc3)cc12 [Compound 49, (2S,4R)-1-(2-(3-acetyl-5-(pyrimidin-5-ylamino)-1H-indol-1-yl)acetyl)-4-fluoro-N-(4-(6-methylimidazo[2,1-b]thiazol-5-yl)thiazol-2-yl)pyrrolidine-2-carboxamide] | 1000 to 10000 nM | – |
| CC(=O)c1cn(CC(=O)N2C[C@H](F)C[C@H]2C(=O)Nc2nc(-c3ccc4c(c3)CCCC4)cs2)c2ccc(Nc3cncnc3)cc12 [Compound 50, (2S,4R)-1-(2-(3-acetyl-5-(pyrimidin-5-ylamino)-1H-indol-1-yl)acetyl)-4-fluoro-N-(4-(5,6,7,8-tetrahydronaphthalen-2-yl)thiazol-2-yl)pyrrolidine-2-carboxamide] | – | > 10000 nM |
| CC(=O)c1cn(CC(=O)N2C[C@H](F)C[C@H]2C(=O)NC2CCc3c(F)ccc(F)c32)c2ccc(Nc3cncnc3)cc12 (stereo partly drawn) [Compound 51, (2S,4R)-1-(2-(3-acetyl-5-(pyrimidin-5-ylamino)-1H-indol-1-yl)acetyl)-N-(4,7-difluoro-2,3-dihydro-1H-inden-1-yl)-4-fluoropyrrolidine-2-carboxamide] | 1000 to 10000 nM | – |
| CC(=O)c1cn(CC(=O)N2C[C@H](F)C[C@H]2C(=O)Nc2ccc(CN)cc2)c2ccc(Nc3cncnc3)cc12 [Compound 53, (2S,4R)-1-(2-(3-acetyl-5-(pyrimidin-5-ylamino)-1H-indol-1-yl)acetyl)-N-(4-(aminomethyl)phenyl)-4-fluoropyrrolidine-2-carboxamide] | 1000 to 10000 nM | – |
| COc1cc(C)cc2c1OCCC2NC(=O)[C@@H]1C[C@@H](F)CN1C(=O)Cn1cc(C(C)=O)c2cc(Nc3cncnc3)ccc21 (stereo partly drawn) [Compound 54, (2S,4R)-1-(2-(3-acetyl-5-(pyrimidin-5-ylamino)-1H-indol-1-yl)acetyl)-4-fluoro-N-(8-methoxy-6-methylchroman-4-yl)pyrrolidine-2-carboxamide] | 1000 to 10000 nM | – |
| CC(=O)c1cn(CC(=O)N2C[C@H](F)C[C@H]2C(=O)Nc2c[nH]nc2-c2ccc(Cl)cc2Cl)c2ccc(Nc3cncnc3)cc12 [Compound 55, (2S,4R)-1-(2-(3-acetyl-5-(pyrimidin-5-ylamino)-1H-indol-1-yl)acetyl)-N-(3-(2,4-dichlorophenyl)-1H-pyrazol-4-yl)-4-fluoropyrrolidine-2-carboxamide] | 1000 to 10000 nM | – |
| CC(=O)c1cn(CC(=O)N2C[C@H](F)C[C@H]2C(=O)Nc2ccc3ncsc3c2)c2ccc(Nc3cncnc3)cc12 [Compound 56, (2S,4R)-1-(2-(3-acetyl-5-(pyrimidin-5-ylamino)-1H-indol-1-yl)acetyl)-N-(benzo[d]thiazol-6-yl)-4-fluoropyrrolidine-2-carboxamide] | – | < 1000 nM |
